Results as given in article PMC7397076 (Molecules, 2020).
Values after ≈ are worked out from the molar mass of the structure shown. Like-named read-outs stand apart in the source and are kept apart here.

Tests used:
InhA reductase enzyme = InhA reductase enzyme (Mycobacterium tuberculosis, UniProt P9WGR1); assay: In vitro InhA enzyme inhibition (NADH oxidation at 340 nm)
[1] = tested on: Mycobacterium tuberculosis H37Rv; assay: Microplate Alamar Blue Assay (MABA), antitubercular activity; format: cell-based
Vero cell line = assay: Cytotoxicity test, MTT assay; format: cell-based, African green monkey; conditions: Chlorocebus sabaeus, 24 h, Vero cells, 24 h exposure, 0.1–200 µg/mL, read-out: Vero Cell Line IC50 ± SEM
[2] = Mycobacterium tuberculosis, H37RV, M. tuberculosis H37Rv, MABA, lowest concentration giving ≥90% reduction in fluorescence, read-out: MIC
[3] = M. tuberculosis H37Rv, MABA, lowest concentration giving ≥90% reduction in fluorescence

Sequence of InhA reductase enzyme (P9WGR1 whole entry, looked up): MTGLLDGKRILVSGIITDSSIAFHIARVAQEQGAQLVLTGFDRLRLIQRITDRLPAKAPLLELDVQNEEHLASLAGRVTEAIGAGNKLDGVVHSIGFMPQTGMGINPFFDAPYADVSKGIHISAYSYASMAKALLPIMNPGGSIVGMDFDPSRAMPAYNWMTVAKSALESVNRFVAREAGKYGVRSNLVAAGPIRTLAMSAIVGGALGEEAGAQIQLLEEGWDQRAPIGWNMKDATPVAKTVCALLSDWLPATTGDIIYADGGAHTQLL

`O=C(N/N=C/c1ccc(OCc2ccccc2)cc1)c1ccc(Oc2ccccc2)cc1` [Compound 8f, (E)-N′-[4-(Benzyloxy)benzylidene]-4-phenoxybenzohydrazide] gave a melting point of 228 to 231 °C, an IC50 (InhA reductase enzyme) of 29.9 µM and an MIC [1, 2] of 22.6 µg/mL (≈ 53.5 µM).
For `c1ccc(Oc2ccc(-c3nnc(-c4ccccc4)o3)cc2)cc1` [Compound 6a, 2-(4-Phenoxyphenyl)-5-phenyl-1,3,4-oxadiazole], the melting point was 233 to 235 °C, the IC50 (InhA reductase enzyme) was over 100 µM and the MIC [1, 2] was 2.74 µg/mL (≈ 8.72 µM).
With `COc1ccc(-c2nnc(-c3ccc(Oc4ccccc4)cc3)o2)cc1` [Compound 6c, 2-(4-Methoxyphenyl)-5-(4-phenoxyphenyl)-1,3,4-oxadiazole] the melting point was 226 to 228 °C, the IC50 (InhA reductase enzyme) was over 100 µM and the MIC [1, 2] was 39 µg/mL (≈ 113 µM).
For `O=C(N/N=C/c1cccs1)c1ccc(Oc2ccccc2)cc1` [Compound 8k, (E)-4-Phenoxy-N′-(thiophen-2-ylmethylene)benzohydrazide], the melting point was 182 to 183 °C, the IC50 (InhA reductase enzyme) was 5.61 µM and the IC50 (Vero cell line) was over 60 µg/mL.
`O=[N+]([O-])c1ccc(-c2nnc(-c3ccc(Oc4ccccc4)cc3)o2)cc1` [Compound 6d, 2-(4-Nitrophenyl)-5-(4-phenoxyphenyl)-1,3,4-oxadiazole] showed a melting point of 226 to 228 °C, an IC50 (InhA reductase enzyme) of 68.4 µM and an MIC [1, 2] of 15.2 µg/mL (≈ 42.2 µM).
With `c1ccc(Oc2ccc(-c3nnc(-c4cccc5ccccc45)o3)cc2)cc1` [Compound 6g, 2-(Naphthalen-1-yl)-5-(4-phenoxyphenyl)-1,3,4-oxadiazole] the melting point was 173 to 175 °C, the IC50 (InhA reductase enzyme) was 33.8 µM and the MIC [1, 2] was 12.2 µg/mL (≈ 33.6 µM).
In the case of `Clc1ccc(-c2nnc(-c3ccc(Oc4ccccc4)cc3)o2)cc1` [Compound 6e, 2-(4-Chlorophenyl)-5-(4-phenoxyphenyl)-1,3,4-oxadiazole], the IC50 (InhA reductase enzyme) is reported as 64.5 µM and the MIC [1, 2] is reported as 15.9 µg/mL (≈ 45.6 µM).
`O=C(N/N=C/c1cccc2ccccc12)c1ccc(Oc2ccccc2)cc1` [Compound 8g, (E)-N′-(Naphthalen-1-ylmethylene)-4-phenoxybenzohydrazide] gave a melting point of 193 to 195 °C, an IC50 (InhA reductase enzyme) of 4.23 µM and an IC50 (Vero cell line) of over 60 µg/mL.
Compound `COc1ccc(/C=N/NC(=O)c2ccc(Oc3ccccc3)cc2)cc1` [Compound 8c, (E)-N′-(4-Methoxybenzylidene)-4-phenoxybenzohydrazide] has a melting point of 233 to 235 °C, an IC50 (InhA reductase enzyme) of 75.5 µM and an MIC [1, 2] of 20.7 µg/mL (≈ 59.7 µM).
`c1ccc(Oc2ccc(-c3nnc(-c4ccco4)o3)cc2)cc1` [Compound 6j, 2-(Furan-2-yl)-5-(4-phenoxyphenyl)-1,3,4-oxadiazole] showed a melting point of 129 to 132 °C, an IC50 (InhA reductase enzyme) of 51.4 µM and an MIC [1, 2] of 11.1 µg/mL (≈ 36.5 µM).
`Oc1cc(Cl)ccc1Oc1ccc(Cl)cc1Cl` [Triclosan, triclosan, reference compound] gave an MIC [1, 3] of 10.00 µg/mL (≈ 34.5 µM) and an MIC ([1]; Mycobacterium tuberculosis, H37RV) of 10 µg/mL (≈ 34.5 µM).
For `COc1cc(-c2nnc(-c3ccc(Oc4ccccc4)cc3)o2)cc(OC)c1OC` [Compound 6b, 2-(4-Phenoxyphenyl)-5-(3,4,5-trimethoxyphenyl)-1,3,4-oxadiazole], the melting point was 250 to 253 °C, the IC50 (InhA reductase enzyme) was over 100 µM and the MIC [1, 2] was 34.6 µg/mL (≈ 85.7 µM).
In the case of `c1ccc(COc2ccc(-c3nnc(-c4ccc(Oc5ccccc5)cc4)o3)cc2)cc1` [Compound 6f, 2-(4-(Benzyloxy)phenyl)-5-(4-phenoxyphenyl)-1,3,4-oxadiazole], the melting point is reported as 226 to 229 °C, the IC50 (InhA reductase enzyme) is reported as 41.2 µM and the MIC [1, 2] is reported as 8.23 µg/mL (≈ 19.6 µM).
`c1ccc(Oc2ccc(-c3nnc(-c4ccncc4)o3)cc2)cc1` [Compound 6i, 2-(4-Phenoxyphenyl)-5-(pyridin-4-yl)-1,3,4-oxadiazole] showed a melting point of 125 to 127 °C, an IC50 (InhA reductase enzyme) of 11.7 µM and an IC50 (Vero cell line) of over 60 µg/mL.
`c1ccc(Oc2ccc(-c3nnc(-c4ccc(Oc5ccccc5)cc4)o3)cc2)cc1` [Compound 6l, 2,5-bis(4-Phenoxyphenyl)-1,3,4-oxadiazole] gave a melting point of 232 to 234 °C, an IC50 (InhA reductase enzyme) of 5.63 µM and an IC50 (Vero cell line) of over 60 µg/mL. It also gave an MIC [1, 3] of 1.17 µg/mL (≈ 2.88 µM) and an MIC [1, 2] of 0.61 to 1.69 µg/mL (≈ 1.5 to 4.16 µM).
For `O=C(N/N=C/c1ccc(Cl)cc1)c1ccc(Oc2ccccc2)cc1` [Compound 8e, (E)-N′-(4-Chlorobenzylidene)-4-phenoxybenzohydrazide], the melting point was 184 to 186 °C, the IC50 (InhA reductase enzyme) was 7.46 µM and the MIC [1, 2] was 2.89 µg/mL (≈ 8.24 µM).
For `COc1cc(/C=N/NC(=O)c2ccc(Oc3ccccc3)cc2)cc(OC)c1OC` [Compound 8b, (E)-4-Phenoxy-N′-(3,4,5-trimethoxybenzylidene)benzohydrazide], the melting point was 191 to 192 °C, the IC50 (InhA reductase enzyme) was over 100 µM and the MIC [1, 2] was 50.2 µg/mL (≈ 124 µM).
`NNC(=O)c1ccncc1` [INH, isoniazid, reference compound] showed an MIC [1, 3] of 0.20 µg/mL (≈ 1.46 µM) and an MIC [1, 2] of 0.2 µg/mL (≈ 1.46 µM).
`O=C(N/N=C/c1cccnc1)c1ccc(Oc2ccccc2)cc1` [Compound 8h, (E)-4-Phenoxy-N′-(pyridin-3-ylmethylene)benzohydrazide] gave a melting point of 149 to 151 °C, an IC50 (InhA reductase enzyme) of 26.5 µM and an MIC [1, 2] of 6.96 µg/mL (≈ 21.9 µM).
Compound `c1ccc(Oc2ccc(-c3nnco3)cc2)cc1` [Compound 4, 2-(4-Phenoxyphenyl)-1,3,4-oxadiazole] has an IC50 (InhA reductase enzyme) of 3.28 µM, an IC50 (Vero cell line) of over 60 µg/mL and an MIC [1, 3] of 0.61 µg/mL (≈ 2.56 µM). The MIC [1, 2] was 0.61 to 1.69 µg/mL (≈ 2.56 to 7.09 µM).
`O=C(N/N=C/c1ccncc1)c1ccc(Oc2ccccc2)cc1` [Compound 8i, (E)-4-Phenoxy-N′-(pyridin-4-ylmethylene)benzohydrazide] showed a melting point of 175 to 177 °C, an IC50 (InhA reductase enzyme) of 21.4 µM and an MIC [1, 2] of 6.82 µg/mL (≈ 21.5 µM).
Work on `c1ccc(Oc2ccc(-c3nnc(-c4cccnc4)o3)cc2)cc1` [Compound 6h, 2-(4-Phenoxyphenyl)-5-(pyridin-3-yl)-1,3,4-oxadiazole] yielded a melting point of 143 to 144 °C, an IC50 (InhA reductase enzyme) of 5.08 µM and an IC50 (Vero cell line) of over 60 µg/mL.
Work on `O=C(N/N=C/c1ccco1)c1ccc(Oc2ccccc2)cc1` [Compound 8j, (E)-N′-(Furan-2-ylmethylene)-4-phenoxybenzohydrazide] yielded an IC50 (InhA reductase enzyme) of 18.4 µM and an MIC [1, 2] of 6.35 µg/mL (≈ 20.7 µM).
`O=C(N/N=C/c1ccccc1)c1ccc(Oc2ccccc2)cc1` [Compound 8a, (E)-N′-Benzylidene-4-phenoxybenzohydrazide] gave a melting point of 163 to 165 °C, an IC50 (InhA reductase enzyme) of 73.2 µM and an MIC [1, 2] of 34.5 µg/mL (≈ 109 µM).
For `c1ccc(Oc2ccc(-c3nnc(-c4cccs4)o3)cc2)cc1` [Compound 6k, 2-(4-Phenoxyphenyl)-5-(thiophen-2-yl)-1,3,4-oxadiazole], the melting point was 139 to 141 °C, the IC50 (InhA reductase enzyme) was 78.6 µM and the IC50 (Vero cell line) was 68.6 ± 1.19 µg/mL (≈ 214 µM).
For `NNC(=O)c1ccc(Oc2ccccc2)cc1` [Compound 3, 4-Phenoxybenzohydrazide], the IC50 (InhA reductase enzyme) was 3.43 µM, the IC50 (Vero cell line) was over 60 µg/mL and the MIC [1, 3] was 0.86 µg/mL (≈ 3.77 µM). The MIC [1, 2] was 0.61 to 1.69 µg/mL (≈ 2.67 to 7.4 µM).
